Assay results reported in patent US20180140602A1, “COMBINATION OF CHIMERIC ANTIGEN RECEPTOR THERAPY AND AMINO PYRIMIDINE DERIVATIVES” (Novartis AG, priority 2015, published 2018).
“Also recorded” adds a separate entry of the source.

Key:
MCL = MCL treated with ibrutinib monotherapy; cited from earlier work
CART19 cells [1] = test: level of circulating CART19 cells under ibrutinib treatment (Example 42); assay type: in vivo; conditions: data shown in Example 42
RL cells [2] = test: Sensitivity to ibrutinib by reduction of bioluminescence; assay type: cell-based, human; conditions: 0.1 nM to 10 μM
CART19 cells [3] = conditions: supra-physiologic concentrations
Jeko-1 cells [4] = test: MTT assay, sensitivity to ibrutinib; assay type: cell-based; conditions: Homo sapiens; Jeko-1, MTT assay; read-out: IC50, inhibition of proliferation
[5] = patients; cited from earlier work
ITK = molecular target: T1, ITK (Homo sapiens, UniProt Q08881); test: ITK phosphorylation (pITK-Y180) in stimulated CART19 cells; assay type: cell-based
T1 sequence (Q08881 1-620): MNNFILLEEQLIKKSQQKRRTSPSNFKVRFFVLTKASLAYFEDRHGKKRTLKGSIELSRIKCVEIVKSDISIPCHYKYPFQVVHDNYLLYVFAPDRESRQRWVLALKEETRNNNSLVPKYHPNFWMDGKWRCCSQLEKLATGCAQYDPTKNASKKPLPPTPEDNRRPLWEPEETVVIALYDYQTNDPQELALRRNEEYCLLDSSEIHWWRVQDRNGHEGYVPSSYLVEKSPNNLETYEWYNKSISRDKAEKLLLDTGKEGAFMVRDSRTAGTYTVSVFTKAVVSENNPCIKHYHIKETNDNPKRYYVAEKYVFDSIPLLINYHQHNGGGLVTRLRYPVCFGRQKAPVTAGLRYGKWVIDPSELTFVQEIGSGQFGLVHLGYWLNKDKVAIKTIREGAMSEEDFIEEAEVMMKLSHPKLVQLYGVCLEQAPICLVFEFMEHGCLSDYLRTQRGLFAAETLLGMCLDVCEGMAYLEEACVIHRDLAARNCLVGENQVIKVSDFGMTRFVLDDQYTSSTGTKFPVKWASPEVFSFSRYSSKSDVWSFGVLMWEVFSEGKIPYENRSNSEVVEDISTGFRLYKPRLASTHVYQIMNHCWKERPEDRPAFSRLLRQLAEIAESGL
Source text: See Dubovsky et al. Blood 122.15(2013):2539-49.

RL cells [6] = test: MTT assay, sensitivity to ibrutinib; assay type: cell-based; conditions: Homo sapiens, read-out: IC50, inhibition of proliferation
Jeko-1 cells [7] = test: Sensitivity to ibrutinib by reduction of bioluminescence; assay type: cell-based, human; conditions: 0.1 nM to 10 μM
MCL-RL cells = test: MCL-RL systemic xenograft model in NSG mice; assay type: in vivo
mantle cell lymphoma = conditions: MCL patients; cited from earlier work
Mino cells = test: MTT assay, sensitivity to ibrutinib; assay type: cell-based; conditions: Homo sapiens, read-out: IC50, inhibition of proliferation

Compound: C=CC(=O)N1CCC[C@@H](n2nc(-c3ccc(Oc4ccccc4)cc3)c3c(N)ncnc32)C1 [ibrutinib, 1-[(3R)-3-[4-Amino-3-(4-phenoxyphenyl)-1H-pyrazolo[3,4-d]pyrimidin-1-yl]piperidin-1-yl]prop-2-en-1-one]
- median duration of response (MCL): about 17.5 months
- level of circulating CART19 cells (CART19 cells [1]): increases the level of circulating CART19 cells
- sensitivity to ibrutinib (reduction of bioluminescence) (RL cells [2]): sensitive to ibrutinib treatment in a dose-dependent manner
- effect on CART19 cell functions (CART19 cells [3]): inhibition of CART19 cell functions
- IC50 (Jeko-1 cells [4]): ≤ 10 µM
- mean peak concentration in serum [5]: 100 to 150 ng/mL
- phosphorylated ITK (pITK-Y180) (ITK; non-specific stimulation via the TCR): reduction in phosphorylated ITK
- ITK activation (ITK; specific stimulation via the CAR): did not lead to diminished ITK activation
- IC50 (RL cells [6]): 0.01 µM
- sensitivity to ibrutinib (reduction of bioluminescence) (Jeko-1 cells [7]): resistant to ibrutinib treatment
- median overall survival (MCL-RL cells; 25 mg/kg/day): 81 days
- median overall survival (MCL-RL cells; 125 mg/kg/day): 100 days
- effect on tumor burden / tumor growth (bioluminescence) (MCL-RL cells; MCL-RL engrafted NSG mice): dose-related sensitivity; also recorded: modestly delayed tumor growth at early time points
- duration of median response (mantle cell lymphoma): 17.5 months
- patients who do not respond (mantle cell lymphoma): about 30%
- IC50 (Mino cells): ≤ 10 µM
